In ChEMBL document CHEMBL4673353, “Switching a Xanthine Oxidase Inhibitor to a Dual-Target Antagonist of P2Y and P2Y as an Oral Antiplatelet Agent with a Wider Therapeutic Window in Rats than Ticagrelor” (J Med Chem, 2020):

Experiments:
[1] = Stability of compound in rabbit plasma assessed as compound degradation at 10 uM incubated up to 45 mins by HPLC analysis; assay type: ADME, cell-free, Oryctolagus cuniculus; details: 0.75 h
[2] = Antagonist activity at P2Y1 in rabbit platelet-rich plasma assessed as inhibition of ADP-induced increase in intracellular Ca2+ concentration preincubated for 5 mins followed by ADP addition and measured for 3 mins by fluo4 dye-based fluorescence assay; assay type: cell-free; details: Oryctolagus cuniculus
[3] = AUC (0 to infinity) in male Sprague-Dawley rat at 10 mg/kg, iv administered as single dose by LC-MS analysis; assay type: ADME, organism-based; parameters: time infinity, route intravenous, dose 10 mg/kg; details: in vivo
Cytochrome P450 2C9 = Cytochrome P450 2C9 (Homo sapiens, UniProt P11712); test: Inhibition of CYP2C9 in human liver microsomes using tolbutamide as substrate preincubated for 5 mins followed by NADPH generating system addition and measured after 120 mins by LC-MS/MS; assay type: ADME
Cytochrome P450 2C9, sequence (P11712 whole entry): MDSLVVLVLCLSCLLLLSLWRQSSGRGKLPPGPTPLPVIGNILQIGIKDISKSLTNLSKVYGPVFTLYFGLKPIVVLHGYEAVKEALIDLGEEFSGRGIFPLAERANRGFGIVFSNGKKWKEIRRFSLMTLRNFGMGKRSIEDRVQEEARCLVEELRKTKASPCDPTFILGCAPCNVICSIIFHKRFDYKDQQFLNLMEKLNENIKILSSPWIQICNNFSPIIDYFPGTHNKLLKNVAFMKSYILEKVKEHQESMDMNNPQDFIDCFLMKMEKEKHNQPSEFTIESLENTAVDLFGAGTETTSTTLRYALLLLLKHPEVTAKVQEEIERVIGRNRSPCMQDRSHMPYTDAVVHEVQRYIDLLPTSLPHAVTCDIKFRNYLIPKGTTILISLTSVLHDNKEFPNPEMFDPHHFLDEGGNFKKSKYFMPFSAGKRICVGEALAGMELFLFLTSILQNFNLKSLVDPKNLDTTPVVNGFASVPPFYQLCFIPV

Cytochrome P450 1A2 = molecular target: T1, Cytochrome P450 1A2 (Homo sapiens, UniProt P05177); test: Inhibition of CYP1A2 in human liver microsomes using phenacetin as substrate preincubated for 5 mins followed by NADPH generating system addition and measured after 120 mins by LC-MS/MS; assay type: ADME
T1 sequence (P05177 whole entry): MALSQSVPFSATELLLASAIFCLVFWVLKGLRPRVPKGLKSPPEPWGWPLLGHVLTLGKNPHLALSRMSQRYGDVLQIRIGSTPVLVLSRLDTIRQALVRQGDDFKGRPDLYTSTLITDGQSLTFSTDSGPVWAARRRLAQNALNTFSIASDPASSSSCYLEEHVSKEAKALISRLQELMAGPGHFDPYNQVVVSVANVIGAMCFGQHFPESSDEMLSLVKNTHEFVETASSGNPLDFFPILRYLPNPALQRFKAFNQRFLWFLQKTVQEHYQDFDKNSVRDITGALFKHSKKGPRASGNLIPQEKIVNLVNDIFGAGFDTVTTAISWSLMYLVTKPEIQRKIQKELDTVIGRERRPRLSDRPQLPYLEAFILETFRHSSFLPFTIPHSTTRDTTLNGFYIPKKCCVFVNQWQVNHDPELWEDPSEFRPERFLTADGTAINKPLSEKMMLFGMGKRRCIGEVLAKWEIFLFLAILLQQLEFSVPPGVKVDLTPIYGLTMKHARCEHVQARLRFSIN

[4] = Oral bioavailability in male Sprague-Dawley rat at 10 mg/kg administered as single dose by LC-MS analysis; assay type: ADME, organism-based; details: in vivo
[5] = Toxicity in Sprague-Dawley rat model of tail snip bleeding assessed as bleeding weight at 10 mg/kg, po administered via gavage as single dose measured within 2 hrs post tail snip(reference value: 0.08 g); assay type: organism-based; details: in vivo
[6] = Acute toxicity in Kunming mouse assessed as behavioral abnormalities at 2000 mg/kg, ig administered as single dose monitored every day up to14 days; assay type: organism-based; details: in vivo, po, 336 h, time 14 day
[7] = Prodrug conversion in male Sprague-Dawley rat assessed as 1-[(4-Cyanobenzyl)oxy]-2-(3-cyanophenyl)-4-methyl-1H-imidazole-5-carboxylic acid formation at 10 mg/kg, po measured at 10 mins by LC-MS analysis; assay type: ADME, organism-based; details: in vivo

Row | Structure (SMILES) | Stabilty [1] | IC50 [2] [nM] | AUC(0-inf) [3] [ng·h/mL] | IC50 (Cytochrome P450 2C9) [µM] | IC50 (Cytochrome P450 1A2) [µM] | bioavailability [4] [%] | Activity [5] [g] | Activity [6] | Drug metabolism [7]
1 | Cc1nc(-c2cccc(C#N)c2)n(OCc2ccc(C#N)cc2)c1C(=O)O | Stable | 2590 | 3500 | > 10 | > 10 | – | – | – | –
2 | CCOC(=O)c1c(C)nc(-c2cccc(C#N)c2)n1OCc1ccc(C#N)cc1 | – | – | – | – | – | 32.4 | 0.4 | Non-Toxic | Metabolite_Detected
